Results as given in patent publication US20140193843A1 (Institut Pasteur, priority 2008, published 2014).
No end group written: not given here.

Assays:
[1] = system: anti-YQRFSR antibody 3RBF-SAB; experiment: Competitive ELISA immuno-assay for Opiorphin; assay type: binding, rabbit; conditions: at 500 ng/ml final concentration
Text: Y represents the antibody directed against Sialorphin.
The peptide was coated on the plastic support of the micro-titration plate (96-well-ImmunoPlate, Nunc).
Inter-assay variability was less than 10%.

acute mechanical pain = conditions: rat, pin-pain test, compared with morphine; cited from earlier work

Substance | recognition by the antibody (specificity of the immuno-assay) [1] | pain-suppressive potency (acute mechanical pain)
QHNPR (Sialorphin; UniProt P13432 29-33, looked up) | not recognized | 
QRFSR [Opiorphin, QRFSR] |  | as effective as morphine
